Measured values published in ChEMBL document CHEMBL3885861, “Open TG-GATES”.

Species on record: Rattus norvegicus
Assay: Open TG-GATES - Regimen: Single
Assay type: toxicity, organism-based, Sprague-Dawley
Set-up: regimen Single, gender Male, age 6 weeks
Settings: in vivo, po, route gavage; for APTT / Bas / Eos / Fbg / Hb / Ht / Lym / MCH / MCHC / MCV / Mono / Neu / PT / Plat / RBC / Ret / WBC: tissue Blood; for KIDNEY_L / KIDNEY_R / KIDNEY_TOTAL: tissue Kidney; for LIVER: tissue Liver; for ALP / ALT / AST / BUN / CRE / Ca / DBIL / GLC / K / LDH / Na / PL / RALB / TBIL / TC / TG / TP / gamma-GTP / IP: tissue Plasma
[1] = 0 mg/kg, 3 h, dose level Control
[2] = 0 mg/kg, 6 h, dose level Control
[3] = 0 mg/kg, 9 h, dose level Control
[4] = 0 mg/kg, 24 h, dose level Control

For `Oc1ncnc2[nH]ncc12` [ALLOPURINOL], the TERMINAL_BW [1] was 209.8 g, the APTT [1] was 16.7 s and the Bas [1] was 0%. For the same compound, the Eos [1] was 0.8%, the Fbg [1] was 211 mg/dL and the Hb [1] was 14 g/dL. It also gave a Ht [1] of 41.7%, a Lym [1] of 73.2% and an MCH [1] of 21.9 pg. The MCHC [1] was 33.7%, the MCV [1] was 65.1 fL and the Mono [1] was 7.4%. For the same compound, the Neu [1] was 18.6%, the PT [1] was 12.3 s and the Plat [1] was 111.5 x10_4/uL. For the same compound, the RBC [1] was 641.2 x10_4/ul, the Ret [1] was 8.1% and the WBC [1] was 95.8 x10_2/uL. It also gave a KIDNEY_L [1] of 1 g, a KIDNEY_R [1] of 1 g and a KIDNEY_TOTAL [1] of 1.9 g. The LIVER [1] was 10.1 g, the ALP [1] was 925 IU/L and the ALT [1] was 30.8 IU/L. For the same compound, the AST [1] was 60 IU/L, the BUN [1] was 12 mg/dL and the CRE [1] was 0.5 mg/dL. It also gave a Ca [1] of 10.9 mg/dL, a DBIL [1] of 0.058 mg/dL and a GLC [1] of 189.4 mg/dL. The K [1] was 4.8 meq/L, the LDH [1] was 96.6 IU/L and the Na [1] was 139.2 meq/L. The PL [1] was 137.4 mg/dL, the RALB [1] was 3.7 g/dL and the TBIL [1] was 0.4 mg/dL. It also gave a TC [1] of 71.8 mg/dL, a TG [1] of 59.4 mg/dL and a TP [1] of 5.6 g/dL. The gamma-GTP [1] was 1.4 IU/L, the TERMINAL_BW [2] was 210 g and the APTT [2] was 16.3 s. For the same compound, the Bas [2] was 0%, the Eos [2] was 1% and the Fbg [2] was 212.6 mg/dL. For the same compound, the Hb [2] was 14.1 g/dL, the Ht [2] was 42% and the Lym [2] was 80%. For the same compound, the MCH [2] was 22.2 pg, the MCHC [2] was 33.4% and the MCV [2] was 66.3 fL. For the same compound, the Mono [2] was 5.6%, the Neu [2] was 13.6% and the PT [2] was 12.3 s. For the same compound, the Plat [2] was 111.5 x10_4/uL, the RBC [2] was 634 x10_4/ul and the Ret [2] was 8.2%. The WBC [2] was 98.8 x10_2/uL, the KIDNEY_L [2] was 0.9 g and the KIDNEY_R [2] was 0.9 g. It also gave a KIDNEY_TOTAL [2] of 1.8 g, an LIVER [2] of 9.5 g and an ALP [2] of 787 IU/L. The ALT [2] was 31.8 IU/L, the AST [2] was 62.2 IU/L and the BUN [2] was 11.2 mg/dL. For the same compound, the CRE [2] was 0.4 mg/dL, the Ca [2] was 11.1 mg/dL and the DBIL [2] was 0.032 mg/dL. It also gave a GLC [2] of 185.4 mg/dL, a K [2] of 5 meq/L and an LDH [2] of 96.6 IU/L. The Na [2] was 139 meq/L, the PL [2] was 132 mg/dL and the RALB [2] was 3.8 g/dL. It also gave a TBIL [2] of 0.3 mg/dL, a TC [2] of 71.8 mg/dL and a TG [2] of 54.4 mg/dL. It also gave a TP [2] of 5.6 g/dL, a gamma-GTP [2] of 0.8 IU/L and a TERMINAL_BW [3] of 204.6 g. For the same compound, the APTT [3] was 16.6 s, the Bas [3] was 0% and the Eos [3] was 1%. For the same compound, the Fbg [3] was 221.2 mg/dL, the Hb [3] was 13.8 g/dL and the Ht [3] was 41.1%. The Lym [3] was 71.4%, the MCH [3] was 21.8 pg and the MCHC [3] was 33.7%. For the same compound, the MCV [3] was 64.8 fL, the Mono [3] was 9.6% and the Neu [3] was 18%. It also gave a PT [3] of 12.3 s, an RBC [3] of 633.4 x10_4/ul and a Ret [3] of 7.5%. For the same compound, the WBC [3] was 81.8 x10_2/uL, the KIDNEY_L [3] was 0.9 g and the KIDNEY_R [3] was 0.9 g. The KIDNEY_TOTAL [3] was 1.9 g, the LIVER [3] was 9 g and the ALP [3] was 761 IU/L. It also gave an ALT [3] of 28.6 IU/L, an AST [3] of 61.2 IU/L and a BUN [3] of 12.4 mg/dL. The CRE [3] was 0.4 mg/dL, the DBIL [3] was 0.018 mg/dL and the GLC [3] was 197.8 mg/dL. The IP [3] was 11.2 mg/dL, the K [3] was 4.7 meq/L and the Na [3] was 139.2 meq/L. The PL [3] was 136.4 mg/dL, the RALB [3] was 3.8 g/dL and the TBIL [3] was 0.4 mg/dL. For the same compound, the TC [3] was 73 mg/dL, the TG [3] was 48 mg/dL and the TP [3] was 5.7 g/dL. The gamma-GTP [3] was 1.2 IU/L, the TERMINAL_BW [4] was 223.3 g and the APTT [4] was 16.3 s. For the same compound, the Bas [4] was 0.2%, the Eos [4] was 0.8% and the Fbg [4] was 219 mg/dL. For the same compound, the Hb [4] was 13.4 g/dL, the Ht [4] was 39.8% and the Lym [4] was 72%. The MCH [4] was 21.8 pg, the MCHC [4] was 33.6% and the MCV [4] was 65 fL. For the same compound, the Mono [4] was 12.4%, the Neu [4] was 14.8% and the PT [4] was 12 s. The Plat [4] was 110.8 x10_4/uL, the RBC [4] was 613.4 x10_4/ul and the Ret [4] was 8.1%. It also gave a WBC [4] of 97 x10_2/uL, a KIDNEY_L [4] of 1 g and a KIDNEY_R [4] of 1 g. For the same compound, the KIDNEY_TOTAL [4] was 2 g, the ALP [4] was 987.2 IU/L and the ALT [4] was 31.2 IU/L. The AST [4] was 63.4 IU/L, the BUN [4] was 18 mg/dL and the CRE [4] was 0.5 mg/dL. The DBIL [4] was 0.02 mg/dL, the GLC [4] was 193.2 mg/dL and the IP [4] was 8.4 mg/dL. It also gave a K [4] of 5.1 meq/L, an LDH [4] of 94 IU/L and a Na [4] of 138 meq/L. It also gave a PL [4] of 153.4 mg/dL, an RALB [4] of 3.8 g/dL and a TBIL [4] of 0.3 mg/dL. The TC [4] was 81.6 mg/dL, the TG [4] was 99 mg/dL and the TP [4] was 5.7 g/dL. It also gave a gamma-GTP [4] of 1.2 IU/L and a TERMINAL_BW (15 mg/kg, 3 h, dose level Low) of 213.7 g.
